From BindingDB's records for doi:10.1021/jm020335m (Abbott Laboratories, 2003)

Experiments:
[1] = Inhibition of concanavalin A stimulated T-cell proliferation in human PBMCs
[2] = Inhibition of concanavalin A stimulated rat splenocyte proliferation

EC50 [1] [µM]	EC50 [2] [µM]	SMILES
0.78	0.048	C=CCC1Oc2cccc(OC)c2-c2ccc3c(c21)C(C)=CC(C)(C)N3 (configuration not stated) [5-Allyl-10-methoxy-2,2,4-trimethyl-2,5-dihydro-1H-6-oxa-1-aza-chrysene]
0.145	0.078	C=CCC1Oc2ccc(O)c(OC)c2-c2ccc3c(c21)C(C)=CC(C)(C)N3 (configuration not stated) [5-Allyl-10-methoxy-2,2,4-trimethyl-2,5-dihydro-1H-6-oxa-1-aza-chrysen-9-ol]
0.418	0.048	C=CCC1Oc2cccc(NC)c2-c2ccc3c(c21)C(C)=CC(C)(C)N3 (configuration not stated) [(5-Allyl-2,2,4-trimethyl-2,5-dihydro-1H-6-oxa-1-aza-chrysen-10-yl)-methyl-amine]
> 1	0.09	C=CCC1Oc2cccc(C=C)c2-c2ccc3c(c21)C(C)=CC(C)(C)N3 (configuration not stated) [5-Allyl-2,2,4-trimethyl-10-vinyl-2,5-dihydro-1H-6-oxa-1-aza-chrysene]
0.563	0.085	C=CCC1Oc2cccc(OC(F)F)c2-c2ccc3c(c21)C(C)=CC(C)(C)N3 (configuration not stated) [5-Allyl-10-difluoromethoxy-2,2,4-trimethyl-2,5-dihydro-1H-6-oxa-1-aza-chrysene]

SMILES	EC50 [1] [µM]	EC50 [2] [µM]
C=CCC1Oc2cccc(Cl)c2-c2ccc3c(c21)C(C)=CC(C)(C)N3 (configuration not stated) [5-Allyl-10-chloro-2,2,4-trimethyl-2,5-dihydro-1H-6-oxa-1-aza-chrysene]	0.44	> 1
